Experimental data: patent publication US11219221B2 (FarmHannong Co., Ltd., priority 2017, dated 2022)

Assays:
Type in all cases: cell-based
Settings in all cases: LB agar, 37° C., light, 16 to 20 hours
[1] = test system: CyPPO17 wild type (SEQ ID NO: 3) in PPO-deficient E. coli BT3(ΔPPO)
Procedure: (§1) The mutated CyPPO gene obtained from the Example 2 was transformed to BT3 (ΔPPO) strain which is deficient of PPO activity and cultured in LB media with PPO-inhibiting herbicide, thereby examining whether growth of transformed BT3 was not inhibited.
(§2) BT3 competent cells were transformed with the pET303-CyPPO16 and pET303-CyPPO17 plasmids and those with a mutation(s) constructed in Example 2 respectively, and were cultured in LB agar media containing carbenicillin (Gold Biotechnology, Co., Ltd.).
(§3) Single colony of E. coli transformed with each CyPPO gene was cultured in 3 ml of LB broth containing carbenicillin overnight, and then was subcultured until absorbance (0D600) reached 0.5 to 1. Then, it was diluted with LB broth to OD600=0.5. Again, the diluted solution was serially diluted 4 times by a factor of one tenth.
(§4) The LB agar media (LB 25 g/l, Bacto agar 15 g/l) containing carbenicillin (100 μg/ml) and 0 to 4,000 μM of various herbicides dissolved in DMSO was prepared. Next, 10 μl of each diluted solution was dropped on the plate and cultured at 37° C. under light (Tables 7 and 9, FIGS. 2 to 6, and 18 to 22) or dark (Tables 8 and 10, FIGS. 7 to 17, and 23 to 33) for 16 to 20 hours. Then, extent of tolerance was evaluated.
(§5) The extent of herbicide tolerance of the mutated genes was evaluated by comparing that of mutated genes with that of wild type. The relative tolerance was represented with “+” as a factor of 10 times. Evaluation result was listed in Tables 7 to10 and FIGS. 2 to 33:
(§6) In Tables 7 to 10, tolerance level was presented as of tolerance of wild type and of variants equivalent to that of wild type, and was done as ‘+’ per each 10 fold resistance until ‘+++++’ as maximal resistance. (Tolerance level was evaluated by relative growth level of variants to that of wild type in the media containing highest concentration of herbicide; ‘+’=1-9 fold higher tolerance, ‘++’=10-99 fold higher tolerance, ‘+++’=100-999 fold higher tolerance, ‘++++’=1,000-9,999 fold higher tolerance, ‘+++++’=more than 10,000 fold higher tolerance)

[2] = test system: CyPPO16 wild type (SEQ ID NO: 1) in PPO-deficient E. coli BT3(ΔPPO)
Procedure: as §1, §2, §3, §4, §5, §6

[3] = test system: CyPPO16 (SEQ ID NO: 1) variant F360V in PPO-deficient E. coli BT3(ΔPPO)
Procedure: as §1, §2, §3, §4
(§7) The extent of herbicide tolerance of the mutated genes was evaluated by comparing that of mutated genes with that of wild type. The relative tolerance was represented with “+” as a factor of 10 times.
(§8) In Tables 7 to 10, tolerance level was presented as of tolerance of wild type and of variants equivalent to that of wild type, and was done as ‘+’ per each 10 fold resistance until ‘+++++’ as maximal resistance.

[4] = test system: CyPPO17 (SEQ ID NO: 3) variant F359I in PPO-deficient E. coli BT3(ΔPPO)
Procedure: as §1, §2, §3, §4, §7, §8

[5] = test system: CyPPO17 (SEQ ID NO: 3) variant F359M in PPO-deficient E. coli BT3(ΔPPO)
Procedure: as §1, §2, §3, §4, §7, §8

[6] = test system: CyPPO16 (SEQ ID NO: 1) variant F360I in PPO-deficient E. coli BT3(ΔPPO)
Procedure: as §1, §2, §3, §4, §7, §8

[7] = test system: CyPPO16 (SEQ ID NO: 1) variant A162L in PPO-deficient E. coli BT3(ΔPPO)
Procedure: as §1, §2, §3, §4, §7, §8

[8] = test system: CyPPO17 (SEQ ID NO: 3) variant A166L in PPO-deficient E. coli BT3(ΔPPO)
Procedure: as §1, §2, §3, §4, §7, §8

[9] = test system: CyPPO16 (SEQ ID NO: 1) variant V305M in PPO-deficient E. coli BT3(ΔPPO)
Procedure: as §1, §2, §3, §4, §7, §8

[10] = test system: CyPPO16 (SEQ ID NO: 1) variant A162C in PPO-deficient E. coli BT3(ΔPPO)
Procedure: as §1, §2, §3, §4, §7, §8

[11] = test system: CyPPO16 (SEQ ID NO: 1) variant F360C in PPO-deficient E. coli BT3(ΔPPO)
Procedure: as §1, §2, §3, §4, §7, §8

[12] = test system: CyPPO17 (SEQ ID NO: 3) variant F359L in PPO-deficient E. coli BT3(ΔPPO)
Procedure: as §1, §2, §3, §4, §7, §8

[13] = test system: CyPPO16 (SEQ ID NO: 1) variant F360L in PPO-deficient E. coli BT3(ΔPPO)
Procedure: as §1, §2, §3, §4, §7, §8

[14] = test system: CyPPO16 (SEQ ID NO: 1) variant F360M in PPO-deficient E. coli BT3(ΔPPO)
Procedure: as §1, §2, §3, §4, §7, §8

[15] = test system: CyPPO17 (SEQ ID NO: 3) variant F359C in PPO-deficient E. coli BT3(ΔPPO)
Procedure: as §1, §2, §3, §4, §7, §8

C#CCN(C)c1c(C#N)cnn1-c1nn2c(c1Cl)CCCC2 [pyraclonil]
Herbicide tolerance (relative to wild type) [1]: − | Herbicide tolerance (relative to wild type) [2]: − | Herbicide tolerance (relative to wild type) [3]: + (1-9 fold higher tolerance) | Herbicide tolerance (relative to wild type) [4]: + (1-9 fold higher tolerance) | Herbicide tolerance (relative to wild type) [5]: + (1-9 fold higher tolerance) | Herbicide tolerance (relative to wild type) [6]: + (1-9 fold higher tolerance) | Herbicide tolerance (relative to wild type) [7]: ++ (10-99 fold higher tolerance) | Herbicide tolerance (relative to wild type) [8]: + (1-9 fold higher tolerance) | Herbicide tolerance (relative to wild type) [9]: + (1-9 fold higher tolerance) | Herbicide tolerance (relative to wild type) [10]: ++ (10-99 fold higher tolerance) | Herbicide tolerance (relative to wild type) [11]: ++ (10-99 fold higher tolerance) | Herbicide tolerance (relative to wild type) [12]: + (1-9 fold higher tolerance) | Herbicide tolerance (relative to wild type) [13]: + (1-9 fold higher tolerance) | Herbicide tolerance (relative to wild type) [14]: + (1-9 fold higher tolerance) | Herbicide tolerance (relative to wild type) [15]: + (1-9 fold higher tolerance)
